Reference: US12685309B2, “Agrochemical formulations” (BASF CORPORATION, priority 2020, dated 2026)

Conditions: for Appearance of mixture with water (solubility): 400 g mixed with water and stirred, 400 g/l mixture
From the text: 400 g of Dicamba with the 93.8 wt % purity as defined above in the experimental part were mixed with water and stirred to obtain a 400 g/l mixture of dicamba.
400 g of dicamba with a purity of 98 wt % were mixed with water.

| Structure (SMILES) | Appearance of mixture with water (solubility) | Stability of the aqueous mixture on storage (400 g/l mixture in water, room temperature, two weeks) |
| --- | --- | --- |
| COc1c(Cl)ccc(Cl)c1C(=O)O [dicamba with a purity of 98 wt %, 3,6-dichloro-2-methoxybenzoic acid] | clear solution | – |
| COc1c(Cl)ccc(Cl)c1C(=O)[O-].[K+] [Dicamba with the 93.8 wt % purity, potassium dicamba] | turbid mixture | serum formation and sedimentation of the undissolved components |
